Measured values taken from patent publication US20260374766A1, “METHODS FOR TREATING CANCER” (Antares Therapeutics, Inc., priority 2022, published 2026).
Read-outs that look alike come from different tables or passages of the source.

Assays:
[1] = target: T1, p53 Y220C mutant protein (amino acid residues 94-293) (Homo sapiens, UniProt P04637, Y220C); experiment: Surface Plasmon Resonance (SPR) assay, Kd_kinetic; format: binding; settings: SPR, p53 Y220C, read-out: SPR P53 Y220C KD kinetic
T1 construct: p53 Y220C mutant protein (amino acid residues 94-293)
T1 sequence (P04637 94-293, stated change not applied): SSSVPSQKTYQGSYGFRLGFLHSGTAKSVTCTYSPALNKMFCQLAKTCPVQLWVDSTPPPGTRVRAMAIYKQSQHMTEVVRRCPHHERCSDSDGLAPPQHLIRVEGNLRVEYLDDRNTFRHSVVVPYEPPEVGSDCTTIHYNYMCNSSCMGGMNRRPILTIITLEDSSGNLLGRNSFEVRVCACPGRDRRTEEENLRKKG
Method: Surface Plasmon Resonance (SPR) Assay Protocol
SPR experiments were performed on a Biacore 8K instrument. […] The running buffer contained 50 mM Tris, pH 7.5, 100 mM NaCl, 1 mM DTT, 0.01% Brij35, 0.05% Tween-20 and 1% DMSO. The assay temperature was maintained at 16 or 20 °C and data were fit into the 1:1 binding model using the Biacore Insight Evaluation software.

p53 Y220C = p53 Y220C (Homo sapiens, UniProt P04637, Y220C); experiment: Luciferase Reporter Assay (Luc), p53 response element, NClH1299 cells with inducible p53 Y220C; format: cell-based; settings: luciferase reporter, NClH1299 inducible p53 Y220C, 6 hour; for AC50: read-out: Luc P53 Y220C AC50
Method: Luciferase Reporter Assay Protocol
The cells were then used for p53 reporter assay. 5,000 cells were seeded in each well of 384 plate and cultured in 0.5 ug/mL doxycycline (D3072; Sigma) containing medium for 24 hours before compound treatment. After 6 hour of compound treatment, equal volume of One-Glo reagent (E6110; Promega) was added to each well and the plate was incubated for 5 minutes with shaking at room temperature. The luciferase activity was immediately measured with PheraStar microplate reader.

NUGC3 p53 Y220C = experiment: Cell Proliferation Assay (CellTiter-Glo, CTG), NUGC3 p53 Y220C; format: cell-based; settings: Homo sapiens, NUGC-3, 120 h, CellTiter-Glo, 5 days
Method: (§1) Inducible p53 Y220C and R273H constructs (Tet-One inducible expression system; Takara) were stably expressed in NClH1299 cells by lentiviral transduction. NUGC3, A549, BxPC3, T3M4, HuH7, HCC2935, MFE296, NClH1299, NClH1299-inducible p53 Y220C, and NClH1299-inducible p53 R273H cell lines were used for cell proliferation assay. 250-500 cells were seeded in each well of 384 plate and then compounds were dispensed into each well using Echo or Tecan. After 5 days of incubation, equal volume of CellTiter-Glo reagent (G7570; Promega) was added into each well and the plate was incubated at room temperature for 10 minutes with shaking. The luminescent signal was measured by PheraStar microplate reader and IC50 was calculated.

H1299 p53 Y220C = experiment: Cell Proliferation Assay (CellTiter-Glo, CTG), H1299 p53 Y220C (NClH1299-inducible p53 Y220C); format: cell-based; settings: Homo sapiens, NCI-H1299, 120 h, CellTiter-Glo, 5 days
Method: as §1

H1299 p53 R273H = experiment: Cell Proliferation Assay (CellTiter-Glo, CTG), H1299 p53 R273H (NClH1299-inducible p53 R273H); format: cell-based; settings: Homo sapiens, NCI-H1299, 120 h, CellTiter-Glo, 5 days
Method: as §1

[2] = 10 uM tool compound as positive control
[3] = NClH1299-inducible p53 Y220C cells
[4] = NClH1299-inducible p53 R273H cells

Row | SMILES | Kd ([1]; kinetic KD) [nM] | Emax (p53 Y220C; [2]) [%] | AC50 (p53 Y220C) [nM] | IC50 (NUGC3 p53 Y220C; NUGC3 p53 Y220C) [nM] | IC50 (H1299 p53 Y220C; H1299 p53 Y220C) [nM] | IC50 (H1299 p53 R273H; H1299 p53 R273H) [nM] | Kd [1] [nM] | AC50 (p53 Y220C; AC50) [nM] | Emax (p53 Y220C; Emax) [%] | IC50 (NUGC3 p53 Y220C; NUGC3 cells) [nM] | IC50 (H1299 p53 Y220C; [3]) [nM] | IC50 (H1299 p53 R273H; [4]) [nM]
1 | CNS(=O)(=O)c1ccc(OC)c(NCC#Cc2cc3c(N[C@@H]4CCN(C)C[C@@H]4F)cccn3c2SC(F)(F)F)c1 [Example 132, 3-{[3-(8-{[(3S,4R)-3-fluoro-1-methylpiperidin-4-yl]amino}-3-[(trifluoromethyl)sulfanyl]indolizin-2-yl)prop-2-yn-1-yl]amino}-4-methoxy-N-methylbenzenesulfonamide] | < 10 | 80 to 90 | < 750 | < 750 | < 750 | 5000 to 8000 |  |  |  |  |  | 
2 | CNC(=O)c1ccc(N[C@H](C)C#Cc2nc3c(N[C@@H]4CCN(C)C[C@@H]4F)cccn3c2SC(F)(F)F)c(OC)c1 [Example 133] | 10 to 100 | > 90 | > 3000 | > 3000 | > 3000 | 5000 to 8000 |  |  |  |  |  | 
3 | CNC(=O)c1ccc(N[C@@H](C)C#Cc2nc3c(N[C@@H]4CCN(C)C[C@@H]4F)cccn3c2SC(F)(F)F)c(OC)c1 [Example 134] | 10 to 100 | 70 to 80 | > 3000 | > 3000 | > 3000 | 5000 to 8000 |  |  |  |  |  | 
4 | CNC(=O)c1ccc(NCC#Cc2nc3c(N[C@@H]4C[C@H]5COC[C@@H]([C@@H]4F)N5C)cccn3c2SC(F)(F)F)c(OC)c1 [Example 137] | 10 to 100 | < 70 | > 3000 | > 3000 | > 3000 | ≥ 10000 |  |  |  |  |  | 
5 | CNC(=O)c1c[nH]nc1NCC#Cc1nc2c(N[C@@H]3CCN(C)C[C@@H]3F)cccn2c1SC(F)(F)F [Example 198] | < 10 | 80 to 90 | < 750 | < 750 | < 750 | ≥ 10000 |  |  |  |  |  | 
6 | CNC(=O)c1ccc(NCC#Cc2nn3c(N[C@@H]4CCN(C)C[C@@H]4F)ccnc3c2SC(F)(F)F)c(OC)c1 [Example 205] | 10 to 100 | < 70 | > 3000 | > 3000 | > 3000 | ≥ 10000 |  |  |  |  |  | 
7 | CNC(=O)c1ccc(OC)c(NCC#Cc2cc3c(N[C@@H]4CN(C)C[C@@H]4F)nccn3c2SC(F)(F)F)c1 [Example 208] | < 10 | > 90 | < 750 | < 750 | < 750 | ≥ 10000 |  |  |  |  |  | 
8 | CNC(=O)c1ccc(OC)c(NCC#Cc2cc3c(N[C@@H]4CNC[C@@H]4F)nccn3c2SC(F)(F)F)c1 [Example 209] | < 10 | > 90 | < 750 | < 750 | 750 to 1500 | ≥ 10000 |  |  |  |  |  | 
9 | CNC(=O)c1ccc(OC)c(NCC#Cc2cc3c(N[C@@H]4CNC[C@@H]4F)nccn3c2SC(F)(F)F)n1 [Example 210] | < 10 | 80 to 90 | 750 to 1500 | 750 to 1500 | 750 to 1500 | ≥ 10000 |  |  |  |  |  | 
10 | CNC(=O)c1ccc(OC)c(NCC#Cc2cc3c(N[C@@H]4CN(C)C[C@@H]4F)nccn3c2SC(F)(F)F)n1 [Example 211] | < 10 | 80 to 90 | < 750 | 750 to 1500 | < 750 | ≥ 10000 |  |  |  |  |  | 
11 | CNC(=O)c1ccc(NCC#Cc2nn3c(N[C@@H]4CCN(C)C[C@@H]4F)nccc3c2SC(F)(F)F)c(OC)c1 [Example 214, 4-{[3-(7-{[(3S,4R)-3-fluoro-1-methylpiperidin-4-yl]amino}-3-[(trifluoromethyl)sulfanyl]pyrazolo[1,5-c]pyrimidin-2-yl)prop-2-yn-1-yl]amino}-3-methoxy-N-methylbenzamide] | < 10 | > 90 | < 750 | < 750 | < 750 | ≥ 10000 |  |  |  |  |  | 
12 | CNC(=O)c1ccc(OC)c(NCC#Cc2nn3c(N[C@@H]4CCN(C)C[C@@H]4F)ccnc3c2SC(F)(F)F)c1 [Example 216, 3-{[3-(7-{[(3S,4R)-3-fluoro-1-methylpiperidin-4-yl]amino}-3-[(trifluoromethyl)sulfanyl]pyrazolo[1,5-a]pyrimidin-2-yl)prop-2-yn-1-yl]amino}-4-methoxy-N-methylbenzamide] | 10 to 100 | < 70 | > 3000 | 1500 to 3000 | 1500 to 3000 | < 5000 |  |  |  |  |  | 
13 | COc1ccc(-c2ncc[nH]2)cc1NCC#Cc1nc2c(N[C@@H]3CCN(C)C[C@@H]3F)cccn2c1SC(F)(F)F [Example 220] | < 10 | 70 to 80 | < 750 | < 750 | < 750 | < 5000 |  |  |  |  |  | 
14 | COc1cc(C(=O)NCCN(C)C)ccc1NCC#Cc1nc2c(N[C@@H]3CCOC[C@@H]3F)cccn2c1SC(F)(F)F [Example 221] | < 10 | 70 to 80 | < 750 | < 750 | < 750 | < 5000 |  |  |  |  |  | 
15 | CNC(=O)c1ccc(C#N)c(NCC#Cc2nc3c(N[C@@H]4CCN(C)C[C@@H]4F)cccn3c2SC(F)(F)F)c1 [Example 224] |  |  |  |  |  |  | < 10 | < 750 | > 90 | < 750 | < 750 | ≥ 10000
16 | CNC(=O)c1ccc(NCC#Cc2nc3c(N[C@@H]4CCOC[C@@H]4F)cccn3c2SC(F)(F)F)c(OCCN(C)C)c1 [Example 226] |  |  |  |  |  |  | < 10 | 750 to 1500 | 70 to 80 | 750 to 1500 | 750 to 1500 | 5000 to 8000
17 | COc1ccc(C(=O)NCC2CN(C)C2)cc1NCC#Cc1nc2c(N[C@@H]3CCOC[C@@H]3F)cccn2c1SC(F)(F)F [Example 228] |  |  |  |  |  |  | < 10 | > 3000 | < 70 | < 750 | > 3000 | ≥ 10000
18 | CNC(=O)c1ccc(NCC#Cc2nc3c(N[C@@H]4CCS(=O)(=O)C4)cccn3c2SC(F)(F)F)c(OC)c1 [Example 230] |  |  |  |  |  |  | 10 to 100 | 1500 to 3000 | 80 to 90 | 1500 to 3000 | 1500 to 3000 | ≥ 10000
19 | COc1ccc(C(N)=O)cc1NCC#Cc1nn2c(N[C@@H]3CCN(C)C[C@@H]3F)cccc2c1SC(F)(F)F [Example 232] |  |  |  |  |  |  | < 10 | < 750 | 80 to 90 | < 750 | < 750 | ≥ 10000
